Laboratory results from US20080234226A1, “Use Of Iron(III) Complex Compounds For The Preparation Of A Medicament For Oral Treatment Of Iron Deficiency States In Patients With Chronic Inflammatory Bowel Disease” (VIFOR (INTERNATIONAL) AG, priority 2005, published 2008).
Like-named read-outs stand apart in the source and are kept apart here. Marks after values point to notes of the source that are not given here. One block for each molecule: values may come before it.

Columns and labels:
[1] = system: patients with chronic inflammatory bowel disease; assay: Markers of oxidative stress (plasma, urine) before and after 14 days oral iron therapy; details: for U-8-iso-PGF2α: urine
Description: (§1) Analysis of the blood, urine and stool and the clinical evaluation of the disease were carried out on day 1 and 15.
(§2) The tablets were taken in accordance with the manufacturer's recommendations. Patient compliance was defined as the consumption of the tablets handed out, 80% being regarded as satisfactory.
(§3) Blood samples were taken, after fasting during the night, on the morning of day 1 and day 15.
Urine samples were collected on the morning of day 1 and day 15 and analysed for creatinine. Butyl-hydroxy-toluene (BHT) was added to 2 ml urine to a final concentration of 20 mM. The samples were then stored at −80° C. until analysed for urine 8-isoprostaglandin F2α (8-iso-PGF2α).
(§4) The values were analysed using the Wilcoxon test for pair differences, and the median and range are stated. The comparison of ratios was evaluated with the Fisher Exact test. P values of less than 0.05 are considered to be statistically significant. The data were analysed using the GraphPad Prism 4 for Windows statistics software package (GraphPad Software, Inc., San Diego, USA).

[2] = system: patients with chronic inflammatory bowel disease
Description: as §1, §2, §3
as §4, with “P values of less than 0.05 are considered to be statistically significant.” left out

[3] = system: patients with chronic inflammatory bowel disease; assay: Clinical disease activity, symptoms, compliance and tolerability during oral iron therapy; assay type: in vivo, human; details: for total number of defecations per week: median (range)
Description: The status of the clinical disease was recorded before (day 1) and after (day 15) the iron therapy. The clinical disease activity was evaluated in patients with Crohn's disease with the “Harvey-Bradshaw Simple Index of Crohn's Disease Activity” (Harvey, R F., Bradshaw, J M., Lancet, 1980; 1:514). The Harvey-Bradshaw Simple Index is based on 5 parameters: general well-being, abdominal pain, stool frequency, abdominal mass and extraintestinal complications. The maximum score is 25 and scores of ≧5 indicate active Crohn's disease.
In patients with colitis ulcerosa, the “Simple Clinical Colitis Activity Index” was recorded (Walmsley, R S., Ayres, R C., Pounder, R E., Allan, R N., Gut 1998; 43; 29-32). The Simple Clinical Colitis Activity Index is based on 6 parameters: general well-being, stool frequency during the day and during the night, urgency of defecation, blood in the stool and extraintestinal complications. The maximum score is 20 and values of ≧4 indicate active colitis ulcerosa.
The Harvey-Bradshaw Simple Index and the Simple Clinical Colitis Activity Index are the same in respect of structure and the clinical significance of a given change in the scores. In order to allow the results of patients with Crohn's disease and colitis ulcerosa to be considered together, the activity scores were calculated as the actual score divided by the maximum score.
All the patients completed the particular Crohn's Disease Activity Index (CDAI) diary card (Best, W R., Becktel, J M., Singleton, J W., Kern, F. Jr., Gastroenterology 1976; 70:439-444) in the week before the start of the iron therapy and during the two weeks of iron therapy. The CDAI diary card comprises daily recording of general well-being, abdominal pain and the number of liquid or very soft stools. The total of seven daily records gives a score for each symptom. The higher the score, the more the patient is adversely affected. The medicament was administered during the study for 14 days and the mean for the two weeks is therefore used for the analysis. The patients also documented the occurrence of nausea before and during the iron therapy.
Patients who discontinued treatment with the medicament because of a deterioration in the symptoms were included in the analysis of the clinical disease activity and the symptom scores. Their disease activity scores were increased by two points, and the symptom scores were increased by one point per day.

[4] = system: white mice; details: cited from earlier work
[5] = mean of differences after vs before 14 days treatment
[6] = plasma, after 14 days oral treatment, mean (SEM)
[7] = plasma, before treatment, mean (SEM)
[8] = after 14 days oral treatment, mean (SEM)
[9] = serum, after 14 days oral treatment, mean (SEM)
[10] = serum, before treatment, mean (SEM)

Molecule: O=S(=O)([O-])[O-].[Fe+2] [Iron(II) sulfate, iron(II) sulfate]
change in plasma MDA values [1, 5]: 95 nmol/L
change in urine iso-PGF2α values [1, 5]: 194 pg/mg creatinine
P-malondialdehyde ([1]; plasma, after 14 days oral treatment (day 15), mean (SEM)): 395 (25)* nmol/l
P-beta-carotene [1, 6]: 0.67 (0.10) μmol/l
P-cysteine [1, 6]: 199 (13) μmol/l
P-cysteinyl-glycine [1, 6]: 16.6 (1.2) μmol/l
P-glutathione [1, 6]: 5.08 (0.54) μmol/l
P-homocysteine [1, 6]: 4.58 (0.47) μmol/l
P-vitamin A [1, 6]: 1.8 (0.2) μmol/l
P-vitamin C [1, 6]: 58.6 (5.4) μmol/l
P-vitamin E [1, 6]: 29.3 (1.5) μmol/l
P-malondialdehyde ([1]; plasma, before treatment (day 1), mean (SEM)): 294 (25) nmol/l
P-beta-carotene [1, 7]: 0.67 (0.09) μmol/l
P-cysteine [1, 7]: 203 (11) μmol/l
P-cysteinyl-glycine [1, 7]: 16.7 (1.1) μmol/l
P-glutathione [1, 7]: 5.05 (0.48) μmol/l
P-homocysteine [1, 7]: 4.87 (0.59) μmol/l
P-vitamin A [1, 7]: 1.7 (0.2) μmol/l
P-vitamin C [1, 7]: 60.9 (6.0) μmol/l
P-vitamin E [1, 7]: 30.2 (1.8) μmol/l
U-8-iso-PGF2α ([1]; after 14 days oral treatment (day 15), mean (SEM)): 629 (124) pg/mg creatinine
U-8-iso-PGF2α ([1]; before treatment (day 1), mean (SEM)): 417 (46) pg/mg creatinine
B-ESR ([2]; in vivo): 11 (2) mm/h
B-erythrocyte count ([2]; in vivo): 4.8 (0.1) 10^12/l
B-haematocrit ([2]; in vivo): 41 (1) %
B-haemoglobin ([2]; in vivo): 13.1 (0.4) g/dl
B-leukocyte count ([2]; in vivo): 6.5 (0.5) 10^9/l
B-platelet count ([2]; in vivo): 324 (23) 10^9/l
B-reticulocyte count ([2]; in vivo): 0.068 (0.006) 10^12/l
Hypochromic red cells (HYPO) ([2]; in vivo): 10.4 (3.6) %
MCH ([2]; in vivo): 27 (0.8) pg
MCHC ([2]; in vivo): 31.8 (0.4) g/dl
MCV ([2]; in vivo): 86 (1.6) fl
Reticulocyte haemoglobin (CHr) ([2]; in vivo): 29.3 (0.8) pg
S-CRP ([2]; in vivo): 7 (2) mg/l
S-ferritin ([2]; in vivo): 13 (2) μg/l
S-iron ([2]; in vivo): 11.1 (2.0) μmol/l
S-total iron binding capacity ([2]; in vivo): 81 (2) μmol/l
decrease in the hypochromic red cells ([2]; in vivo): −2.5%
decrease in the serum total iron binding capacity ([2]; in vivo): -7 µmol/L
increase in blood reticulocyte count ([2]; in vivo): 1.6e+10 L⁻¹
increase in s-ferritin ([2]; in vivo): 12 µg/L
increase in the reticulocyte haemoglobin ([2]; in vivo): 1.9 pg
increase of blood haemoglobin ([2]; in vivo): Neither iron(II) sulfate nor iron(III)-polymaltose complex increased the blood haemoglobin
B-ESR ([2]; in vivo, po): 10 (2) mm/h
B-erythrocyte count ([2]; in vivo, po): 4.8 (0.1) 10^12/l
B-haematocrit ([2]; in vivo, po): 42 (1)* %
B-haemoglobin ([2]; in vivo, po): 13.3 (0.3) g/dl
B-leukocyte count ([2]; in vivo, po): 6.3 (0.4) 10^9/l
B-platelet count ([2]; in vivo, po): 306 (21) 10^9/l
B-reticulocyte count ([2]; in vivo, po): 0.084 (0.007) 10^12/l
Hypochromic red cells (HYPO) ([2]; in vivo, po): 8.8 (3.2)* %
MCH ([2]; in vivo, po): 28 (0.8)*# pg
MCHC ([2]; in vivo, po): 32.0 (0.3) g/dl
MCV ([2]; in vivo, po): 87 (1.3)* fl
Reticulocyte haemoglobin (CHr) ([2]; in vivo, po): 31.1 (0.7)* pg
S-CRP ([2]; in vivo, po): 6 (2) mg/l
S-ferritin ([2]; in vivo, po): 25 (3)*# μg/l
S-iron ([2]; in vivo, po): 14.2 (2.2) μmol/l
S-total iron binding capacity ([2]; in vivo, po): 74 (2)*# μmol/l
influence on general wellbeing or abdominal pain score ([3]; CDAI diary card): Neither iron(II) sulfate nor iron(III)-polymaltose complex had an influence
total number of defecations per week ([3]; before treatment): 19 (7-106)
change of clinical disease activity indices ([3]; day 15 vs day 1): Neither the treatment with iron(II) sulfate (p=0.45) nor the treatment with iron(III)-polymaltose complex (p=0.80) substantially changed the clinical disease activity indices
total number of defecations per week ([3]; during the treatment): 24 (7-55)
patients who discontinued the treatment (intolerable bowel movements, abdominal pain and nausea) ([3]; of n=21 iron(II) sulfate, n=20 iron(III)-polymaltose complex): Three patients
Increased nausea reported ([3]; patients reporting / patients treated): 9/21
LD50 [4]: 230 mg iron/kg

P-beta-carotene ([1]; in vivo): 0.59 (0.13) μmol/l
P-cysteinyl-glycine ([1]; in vivo): 18.7 (0.9) μmol/l
P-glutathione ([1]; in vivo): 5.22 (0.30) μmol/l
P-homocysteine ([1]; in vivo): 6.53 (1.16) μmol/l
P-malondialdehyde ([1]; in vivo): 275 (21) nmol/l
P-vitamin A ([1]; in vivo): 1.6 (0.1) μmol/l
P-vitamin E ([1]; in vivo): 29.3 (1.6) μmol/l
change in plasma MDA values ([1]; in vivo): did not significantly change
change in urine iso-PGF2α values ([1]; in vivo): did not significantly change
P-beta-carotene ([1]; in vivo, po): 0.57 (0.09) μmol/l
P-cysteinyl-glycine ([1]; in vivo, po): 18.5 (1.1) μmol/l
P-glutathione ([1]; in vivo, po): 5.43 (0.43) μmol/l
P-homocysteine ([1]; in vivo, po): 6.04 (0.94) μmol/l
P-malondialdehyde ([1]; in vivo, po): 300 (19) nmol/l
P-vitamin A ([1]; in vivo, po): 1.9 (0.3) μmol/l
P-vitamin E ([1]; in vivo, po): 28.3 (1.7) μmol/l
B-ESR ([2]; in vivo): 22 (3) mm/h
B-leukocyte count ([2]; in vivo): 6.9 (0.6) 10^9/l
B-platelet count ([2]; in vivo): 347 (18) 10^9/l
S-CRP ([2]; in vivo): 12 (3) mg/l
B-ESR ([2]; in vivo, po): 20 (3)* mm/h
B-leukocyte count ([2]; in vivo, po): 7.0 (0.7) 10^9/l
B-platelet count ([2]; in vivo, po): 343 (21) 10^9/l
S-CRP ([2]; in vivo, po): 11 (2) mg/l
Molecule: iron(III)-polymaltose complex
increase of blood haemoglobin ([2]; 14 days treatment): Neither iron(II) sulfate nor iron(III)-polymaltose complex increased the blood haemoglobin
B-erythrocyte count [2, 8]: 4.7 (0.1) 10^12/l
B-haematocrit [2, 8]: 40 (1) %
B-reticulocyte count [2, 8]: 0.075 (0.008)* 10^12/l
Hypochromic red cells (HYPO) [2, 8]: 10.6 (2.8) %
MCH [2, 8]: 27 (0.7) pg
MCHC [2, 8]: 31.2 (0.3) g/dl
MCV [2, 8]: 85 (1.6) fl
Reticulocyte haemoglobin (CHr) [2, 8]: 29.5 (0.7) pg
B-erythrocyte count ([2]; before treatment, mean (SEM)): 4.7 (0.1) 10^12/l
B-haematocrit ([2]; before treatment, mean (SEM)): 39 (1) %
B-reticulocyte count ([2]; before treatment, mean (SEM)): 0.059 (0.006) 10^12/l
Hypochromic red cells (HYPO) ([2]; before treatment, mean (SEM)): 10.3 (3.0) %
MCH ([2]; before treatment, mean (SEM)): 27 (0.7) pg
MCHC ([2]; before treatment, mean (SEM)): 31.6 (0.3) g/dl
MCV ([2]; before treatment, mean (SEM)): 84 (1.8) fl
Reticulocyte haemoglobin (CHr) ([2]; before treatment, mean (SEM)): 29.1 (0.8) pg
B-haemoglobin ([2]; blood, after 14 days oral treatment, mean (SEM)): 12.5 (0.3) g/dl
B-haemoglobin ([2]; blood, before treatment, mean (SEM)): 12.5 (0.3) g/dl
increase in blood reticulocyte count [2, 5]: 1.6e+10 L⁻¹
S-ferritin [2, 9]: 13 (2) μg/l
S-iron [2, 9]: 8.9 (1.5) μmol/l
S-soluble transferrin receptor [2, 9]: 2.03 (0.21) mg/l
S-total iron binding capacity [2, 9]: 77 (2) μmol/l
S-ferritin [2, 10]: 13 (2) μg/l
S-iron [2, 10]: 8.8 (0.8) μmol/l
S-soluble transferrin receptor [2, 10]: 2.08 (0.24) mg/l
S-total iron binding capacity [2, 10]: 77 (2) μmol/l
Increased nausea reported ([3]; human, in vivo): 7/20
change of clinical disease activity indices ([3]; human, in vivo): Neither the treatment with iron(II) sulfate (p=0.45) nor the treatment with iron(III)-polymaltose complex (p=0.80) substantially changed the clinical disease activity indices
influence on general wellbeing or abdominal pain score ([3]; human, in vivo): Neither iron(II) sulfate nor iron(III)-polymaltose complex had an influence
patients who discontinued the treatment (intolerable bowel movements, abdominal pain and nausea) ([3]; human, in vivo): one patient
tolerability of the iron therapy ([3]; human, in vivo): good tolerability
